{"source": "patent US9522928B2", "about": "“Mannosylated compounds useful for the prevention and the treatment of infectious diseases” (UNIVERSITE DE STRASBOURG, priority 2011, dated 2016)", "key": {"HIV-1 (R5 strain)": {"test_system": "HIV-1 (R5 strain)", "assay": "HIV-1 cis-infection and replication in DCs (p24Gag ELISA)", "format": "cell-based", "details": "10 and 100 μM, p24Gag in supernatant", "description": "Human monocyte-derived dendritic cells (2×10^5; 300 μL) in RPMI 1640 medium containing 10% FBS were pre-treated with either anti-DC-SIGN antibodies (clone AZND1, Beckman-Coulter; 10 μg/mL) or compounds TriManC24 and TriManC24insat (10 and 100 μM) for 30 min at 37° C., before inoculation with HIV-1 (R5 strain; 100 ng of p24Gag). After 3 h, cells were pelleted and extensively washed to remove excess virus and compounds. On day 2, 4 and 7 after infection, cells were pelleted, an aliquot of the supernatant was removed and kept at −20° C., and half of the supernatant was replaced with fresh medium. Viral replication was monitored by measuring p24Gag levels in the culture supernatant by an enzyme-linked immunosorbent assay (ELISA, Innogenetics). […] As shown in the case of Dengue virus, the compounds of the invention may also interfere with HIV cis-infection. […] Discussion"}, "DCs": {"test_system": "DCs", "assay": "Confocal microscopy of Alexa633-labeled TriManC24 in DCs", "format": "cell-based, human", "details": "Alexa Fluor 633 labeled compound, 100 μM, 10 min at 37° C.", "description": "Human DCs (1×10^5 in 100 μl of RPMI medium) were exposed to Alexa633-labeled TriManC24 (100 μM final) for 10 min at 37° C. When indicated, transferrin-Alexa488 (Invitrogen) was also added for 10 min at 37° C. Cells were then washed and fixed with 4% paraformaldehyde for 15 min at room temperature. Nuclei were labeled with DAPI (1 μg/ml final) for 5 min. Slides were mounted using Prolong-Antifade (Molecular Probes). Samples were imaged with a confocal microscope (Zeiss LSM 700) and images analyzed with Adobe Photoshop.\nTo gain further insight into the interactions of TriManC24 with DC-SIGN expressed by DCs, a fluorescence-labeled TriManC24 was prepared by connecting Alexa Fluor 633 to hydroxyl groups of the mannose units. DCs were exposed to the labeled TriManC24 and visualized by confocal fluorescence microscopy."}, "[1]": {"target": "T1, DC-SIGN expressed at the surface of DCs (Homo sapiens, UniProt Q9NNX6)", "T1 construct": "endogenous in cells; host or cells: human monocyte-derived dendritic cells (GM-CSF/IL-4 differentiated)", "T1 sequence (Q9NNX6 1-404)": "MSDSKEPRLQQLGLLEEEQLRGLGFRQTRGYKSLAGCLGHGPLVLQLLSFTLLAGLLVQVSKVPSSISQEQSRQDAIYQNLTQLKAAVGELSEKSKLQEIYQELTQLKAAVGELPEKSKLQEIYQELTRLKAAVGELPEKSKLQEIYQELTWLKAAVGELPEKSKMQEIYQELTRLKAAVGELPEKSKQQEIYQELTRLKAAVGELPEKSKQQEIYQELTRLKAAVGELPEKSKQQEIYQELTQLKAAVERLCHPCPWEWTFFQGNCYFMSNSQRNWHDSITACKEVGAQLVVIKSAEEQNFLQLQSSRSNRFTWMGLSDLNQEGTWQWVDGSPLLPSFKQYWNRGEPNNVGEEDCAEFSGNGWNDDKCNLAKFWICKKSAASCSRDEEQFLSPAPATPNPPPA", "assay": "Competition with gp120-FITC binding to DCs, flow cytometry", "format": "cell-based", "details": "100 μM, 30 min pretreatment, competition not complete", "description": "Human DCs (1×10^5 in 100 μl) were aliquoted in a 96-well microtiter plate in RPMI 1640 medium without FBS. To assess the binding of HIV-1 glycoprotein 120, FITC conjugated recombinant gp120 HIV-1 IIIB (ImmunoDiagnostics Inc, Woburn, Mass. U.S.A.) was added to the cells (final concentration of 5 μg/ml) and incubated for 45 min at 37° C. For competition assays, cells were pretreated with either mannan (100 μg/ml final) or TriManC24 (100 μM) for 30 min at 37° C., followed by incubation with gp120-FITC for 45 min at 37° C. After washing with HBSS buffer (Lonza), expression of fluorescence intensity was analyzed on a FACSCalibur flow cytometer with the CellQuest Pro software\nThe ability of TriManC24 to inhibit the interactions of HIV-1 gp120 with DC-SIGN […] at the surface of DCs. Immature DCs were prepared by differentiation of human monocytes, in the presence of a cocktail of cytokines. The expression levels of DC-SIGN were controlled by flow cytometry. […] When cells were incubated with fluorescently-labeled gp120, a strong binding of gp120 to DCs was observed as compared with a lower interaction with monocytes (FIG. 1B).\nA competition assays were performed by pre-incubating DCs with either TriManC24 or mannan, followed by the addition of gp120-FITC (FIG. 1C)."}}, "note": "“Also recorded” adds a separate entry of the source.", "data": [{"smiles": "CCCCCCCCCCCCCCCCCCCCCCCCC(=O)NC(COCCC(=O)NCCOCCOCCOCCOC1OC(CO)C(O)C(O)C1O)(COCCC(=O)NCCOCCOCCOCCOC1OC(CO)C(O)C(O)C1O)COCCC(=O)NCCOCCOCCOCCOC1OC(CO)C(O)C(O)C1O", "note": "(stereo not shown) [TriManC24]", "values": [{"measurement": "inhibition of HIV-1 cis-infection / replication in DCs (in words)", "setting": "HIV-1 (R5 strain)", "result": "decreases the amount of HIV R5 replication; also recorded: inhibit"}, {"measurement": "cell binding and internalization (in words)", "setting": "DCs", "result": "binds to the cell membrane and can be internalized by DCs via clathrin -mediated endocytosis"}, {"measurement": "inhibition of gp120 binding to DCs (in words)", "setting": "[1]", "result": "able to inhibit the binding of gp120-FITC to DCs"}, {"measurement": "inhibition of gp120 binding to DCs (in words)", "setting": "[1]; listed as TrimanC24", "result": "competed for the binding of soluble gp120 glycoprotein to DC-SIGN"}]}]}
